From the NIST ThermoML archive (doi:10.1016/j.fluid.2012.12.028)

Conditions: Liquid, Ebulliometric method (Recirculating still)

CON=C(C)C [propan-2-one O-methyl oxime]
Conditions | vapor or sublimation pressure [kPa]
307.8 K | 21.3
312.4 K | 26.3
316.6 K | 32.3
319.6 K | 36.3
322.9 K | 42.3
327.6 K | 51.3
330 K | 56.3
332.2 K | 61.3
334.2 K | 66.3
336.1 K | 71.3
337.7 K | 76.3
339.6 K | 81.3
341 K | 86.3
342.6 K | 91.3
344.1 K | 96.3
